Reference: patent US20090203695A1, “Compounds IV” (Biovitrum AB, priority 2007, published 2009)

Key:
JEG-3 cells [1] = details: JEG-3 cells (choriocarcinoma cell line); Biol. Reprod. (2007) 76: 203-10; cited from earlier work
JEG-3 cells [2] = assay: [3H]-thymidine incorporation in JEG-3 cells (JEG-3 protocol); format: cell-based
Description: In JEG-3 cells (choriocarcinoma cell line) leptin is able to stimulate proliferation up to 3 fold (Biol. Reprod. (2007) 76: 203-10). […] The radioactivity incorporated by the cells is an index of their proliferative activity and is measured in counts per minute (CPM) with a liquid scintillation beta counter.
This finding can be applied to test whether a compound is able to either reproduce the effect of leptin on cell proliferation (leptin receptor agonist mimetic) (i.e., a given compound will cause an increase in incorporated [^3H]-Thymidine by the cells) or to inhibit the effect of leptin (antagonistic effect) by preventing the leptin-mediated increase in [^3H]-thymidine incorporation.
This approach has the advantage of using a non-recombinant system and has reasonable reproducibility and robustness.

EC50 (JEG-3 cells [2]; FIG. 4, read-out: EC50, increase in [3H]-thymidine incorporation): 2.1 nM
Substance: Leptin: hormone synthesized in fat cells that is believed to act in the hypothalamus to reduce food intake and body weight
stimulation of proliferation (JEG-3 cells [1]): up to 3 fold
concentration of maximal effect on [3H]-thymidine incorporation (JEG-3 cells [2]; FIG. 4): 100 nM
